Assay results from patent US20250282715A1, “SOLID STATE FORMS OF MIRDAMETINIB AND PROCESS FOR PREPARATION THEREOF” (Assia Chemical Industries Ltd., priority 2022, published 2025).

What was measured:
Type in all cases: physicochemical
[1] = Hygroscopicity (water absorption at up to 90% RH); conditions: about 25° C.
[2] = Thermal stability (oven heating, XRPD analysis); conditions: heated in an oven at 100° C. for 30 minutes
Procedure: (§1) A sample, after being powdered in a mortar and pestle, is applied directly on a silicon plate holder. The X-ray powder diffraction pattern was measured with Philips X'Pert PRO X-ray powder diffractometer, equipped with Cu irradiation source=1.54184 Å (Ångström), X'Celerator (2.022° 20) detector. Scanning parameters: angle range: 3-40 deg., step size 0.0167, time per step 37 s, continuous scan.
Samples of Mirdametinib oxalic acid co-crystal Form A (100 mg) and Form IV were heated in an oven at 100° C. for 30 minutes.

[3] = Stability to compression (2 tons, XRPD analysis); conditions: pressure of 2 tons for 2 minutes, hydraulic press
Procedure: as §1
A sample of Mirdametinib oxalic acid co-crystal Form A was subjected to a pressure of 2 tons for 2 minutes (Atlas® Autopress hydraulic press, set to 2 tons).

Hygroscopicity / water absorption [1] | XRPD after heating [2] | XRPD after heating ([2]; listed as Mirdametinib oxalic acid co-crystal Form A) | Stability to compression: XRPD analysis after mechanical stress [3] | Compound
little or no water absorption | Form A | no conversion to other polymorph forms | resistant to amorphization | O=C(NOC[C@H](O)CO)c1ccc(F)c(F)c1Nc1ccc(I)cc1F.O=C(O)C(=O)O
– | form IV + form I | – | – | O=C(NOC[C@H](O)CO)c1ccc(F)c(F)c1Nc1ccc(I)cc1F [Mirdametinib form IV, N-[(2R)-2,3-dihydroxypropoxyl]-3,4-difluoro-2-[(2-fluoro-4-iodophenyl)amino]benzamide, reference compound]
